Experiments:
[1] = target: T1, FPR1 (Homo sapiens (Human), UniProt P21462); test: Reactive oxygen species (ROS) assay in human neutrophils stimulated with fMLP; assay type: cell-based; details: human neutrophils from whole blood; fMLP (500 nM); DCFH-DA fluorescence; read-out: Anti-ROS IC50
Description: Reactive Oxygen Species (ROS) Assay
Human whole blood was collected, and ACK lysis buffer (ThermoFisher, A1049201) was added at 3 times the volume of the blood sample to lyse the red blood cells. The sample was incubated on ice for 15 minutes, and gently mixed twice during the incubation. 10 mL DPBS was then added, and the sample was centrifuged for 8 minutes. After removing the supernatant, remaining cells were resuspended in RPMI1640 medium containing 3% FBS and centrifuged again for 10 minutes. After removing the supernatant, cells were again resuspended in RPMI1640 medium containing 3% FBS. Neutrophil cell count was determined using FACS analysis by APC-labeled CD11b antibody (Biolegend, 101211) and FITC-labeled CD66b antibody (Biolegend, 305104). Neutrophils were then plated into 96-well plates (300,000/well). Plates were centrifuged and supernatant was removed. Cells were resuspended in 80 μL of compound solution (prepared in RPMI1640 medium containing 3% FBS), then incubated at room temperature for 15 minutes. 20 μL solution containing DCFH-DA (at the manufacturer's recommended concentration, Yeasen Biotechnology, 50101ES01) and fMLP (500 nM) was then added. Cells were incubated at 37° C. in 5% CO2 for 20 minutes away from light. After incubation, cells were placed on ice for 5 minutes, washed twice with 200 μL ice-cold DPBS, then resuspended in ice-cold DPBS at 100 µL/well. Fluorescence from each sample was measured at 485 nm excitation and 535 nm emission.
(§1) The effects of the compounds of the present disclosure on regulating the FPR1-mediated cell signaling were measured by monitoring the cellular cAMP level change and anti-reactive oxygen species formation in human neutrophils in the presence of an FPR1 agonist, respectively, as illustrated by the examples in Table 1.

[2] = target: T1, FPR1; test: Cyclic adenosine monophosphate (cAMP) assay, CHO-K1 cells stably overexpressing hFPR1; assay type: cell-based; details: 2.5 μM Forskolin and 0.25 nM WKYMVm (FPR1 agonist)
Description: Cyclic Adenosine Monophosphate (cAMP) Assay
CHO-K1 cells stably overexpressing hFPR1 were plated into 384-well cell culture plates (2,000/well/5 μL) in 1× Stimulation Buffer (LANCE Ultra cAMP Kit, Perkin Elmer, TRF0263). 1 μL compound solution (prepared in ddH2O containing 0.2% DMSO) was added to each well. Plates were centrifuged briefly, and cells were incubated at 37° C. in 5% CO2 for 10 minutes. 4 μL solution containing 2.5 μM Forskolin and 0.25 nM WKYMVm (an FPR1 agonist, GLPBIO, GC15140) was then added to each well. 5 μL of Eu-cAMP solution (diluted to manufacturer's recommended working concentration in Detection Buffer, LANCE Ultra cAMP Kit) and 5 μL of ULight-anti-cAMP solution (diluted in Detection Buffer, LANCE Ultra cAMP Kit) were added to each well. Plates were centrifuged briefly, and cells were incubated at room temperature for 1 hour. Fluorescence emission at 665 nm and 620 nm from the samples was measured by a Perkin Elmer Envision instrument.
as §1

T1 sequence (P21462 whole entry): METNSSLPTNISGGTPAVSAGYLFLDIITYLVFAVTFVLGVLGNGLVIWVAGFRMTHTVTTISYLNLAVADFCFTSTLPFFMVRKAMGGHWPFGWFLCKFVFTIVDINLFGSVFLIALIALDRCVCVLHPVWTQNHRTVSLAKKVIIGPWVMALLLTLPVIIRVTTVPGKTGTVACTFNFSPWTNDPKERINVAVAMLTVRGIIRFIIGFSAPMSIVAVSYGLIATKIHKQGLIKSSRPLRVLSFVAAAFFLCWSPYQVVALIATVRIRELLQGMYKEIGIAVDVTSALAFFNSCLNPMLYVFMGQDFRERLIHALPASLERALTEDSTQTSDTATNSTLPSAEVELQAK

Compound | IC50 [1] | IC50 [2]
C[C@H](NC(=O)c1c(NS(=O)(=O)c2ccc(Cl)cc2)c(-c2ccccc2C(F)F)nn1C)C(C)(C)C [Compound 39, (S)-4-((4-chlorophenyl)sulfonamido)-3-(2-(difluoromethyl)phenyl)-N-(3,3-dimethylbutan-2-yl)-1-methyl-1H-pyrazole-5-carboxamide] | 0.1 to 1 µM | 0.1 to 1 µM
Cc1ccc(S(=O)(=O)Nc2c(C3=CCC(F)(F)CC3)nn(C)c2C(=O)N[C@@H](C)C(C)(C)C)cc1 [Compound 29, (S)-3-(4,4-difluorocyclohex-1-en-1-yl)-N-(3,3-dimethylbutan-2-yl)-1-methyl-4-((4-methylphenyl)sulfonamido)-1H-pyrazole-5-carboxamide] |  | > 25 µM
C[C@H](NC(=O)c1c(NS(=O)(=O)c2ccc(C#N)cc2)c(-c2ccc(F)cc2F)nn1C)C(C)(C)C [Compound 41, (S)-4-((4-cyanophenyl)sulfonamido)-3-(2,4-difluorophenyl)-N-(3,3-dimethylbutan-2-yl)-1-methyl-1H-pyrazole-5-carboxamide] | 0.1 to 1 µM | 0.1 to 1 µM
CO[C@H]1CC[C@@H](c2nn(C)c(C(=O)N[C@@H](C)C(C)(C)C)c2NS(=O)(=O)c2ccc(Cl)cc2)CC1 [Compound 19, 4-((4-chlorophenyl)sulfonamido)-N—((S)-3,3-dimethylbutan-2-yl)-3-((1S,4R)-4-methoxycyclohexyl)-1-methyl-1H-pyrazole-5-carboxamide] | < 0.1 µM | 0.1 to 1 µM
C[C@H](NC(=O)c1c(NS(=O)(=O)c2ccc(C3CC3)cc2)c(-c2ccc(F)cc2)nn1C)C(C)(C)C [Compound 26, (S)-4-((4-cyclopropylphenyl)sulfonamido)-N-(3,3-dimethylbutan-2-yl)-3-(4-fluorophenyl)-1-methyl-1H-pyrazole-5-carboxamide] | 0.1 to 1 µM | 1 to 25 µM
Cc1ccc(S(=O)(=O)Nc2c(-c3cccc(OCC(C)C)c3)nn(C)c2C(=O)N[C@@H](C)C(C)(C)C)cc1 [Compound 35, (S)—N-(3,3-dimethylbutan-2-yl)-3-(3-isobutoxyphenyl)-1-methyl-4-((4-methylphenyl)sulfonamido)-1H-pyrazole-5-carboxamide] |  | > 25 µM
COCc1cncc(-c2nn(C)c(C(=O)N[C@@H](C)C(C)(C)C)c2NS(=O)(=O)c2ccc(Cl)cc2)c1 [Compound 40, (S)-4-((4-chlorophenyl)sulfonamido)-N-(3,3-dimethylbutan-2-yl)-3-(5-(methoxymethyl)pyridin-3-yl)-1-methyl-1H-pyrazole-5-carboxamide] |  | 1 to 25 µM
Cc1ccc(S(=O)(=O)Nc2c(C3(O)CCOCC3)nn(C)c2C(=O)N[C@@H](C)C(C)(C)C)cc1 [Compound 31, (S)—N-(3,3-dimethylbutan-2-yl)-3-(4-hydroxytetrahydro-2H-pyran-4-yl)-1-methyl-4-((4-methylphenyl)sulfonamido)-1H-pyrazole-5-carboxamide] |  | > 25 µM
C[C@H](NC(=O)c1c(NS(=O)(=O)c2ccc(Cl)cc2)c(-c2ccncc2)nn1C)C(C)(C)C [Compound 5, (S)-4-((4-chlorophenyl)sulfonamido)-N-(3,3-dimethylbutan-2-yl)-1-methyl-3-(pyridin-4-yl)-1H-pyrazole-5-carboxamide] |  | > 25 µM
Cc1ccc(S(=O)(=O)Nc2c(-c3cccc(OC(F)(F)F)c3)nn(C)c2C(=O)N[C@@H](C)C(C)(C)C)cc1 [Compound 34, (S)—N-(3,3-dimethylbutan-2-yl)-1-methyl-4-((4-methylphenyl)sulfonamido)-3-(3-(trifluoromethoxy)phenyl)-1H-pyrazole-5-carboxamide] |  | > 25 µM
C[C@H](NC(=O)c1c(NS(=O)(=O)c2ccc(Cl)cc2)c(C2CCC(F)(F)CC2)nn1C)C(C)(C)C [Compound 37, (S)-4-((4-chlorophenyl)sulfonamido)-3-(4,4-difluorocyclohexyl)-N-(3,3-dimethylbutan-2-yl)-1-methyl-1H-pyrazole-5-carboxamide] | 0.1 to 1 µM | 0.1 to 1 µM
C[C@H](NC(=O)c1c(NS(=O)(=O)c2ccc(Cl)cc2)c(C2=CCC3(CC2)OCCO3)nn1C)C(C)(C)C [Compound 24, (S)-4-((4-chlorophenyl)sulfonamido)-N-(3,3-dimethylbutan-2-yl)-1-methyl-3-(1,4-dioxaspiro[4.5]dec-7-en-8-yl)-1H-pyrazole-5-carboxamide] | 1 to 25 µM | 1 to 25 µM
C[C@H](NC(=O)c1c(NS(=O)(=O)c2ccc(C#N)cc2)c(C2CCC(F)(F)CC2)nn1C)C(C)(C)C [Compound 44, (S)-4-((4-cyanophenyl)sulfonamido)-3-(4,4-difluorocyclohexyl)-N-(3,3-dimethylbutan-2-yl)-1-methyl-1H-pyrazole-5-carboxamide] | 0.1 to 1 µM | 0.1 to 1 µM
COCc1cccc(-c2nn(C)c(C(=O)N[C@@H](C)C(C)(C)C)c2NS(=O)(=O)c2ccc(C)cc2)c1 [Compound 15, (S)—N-(3,3-dimethylbutan-2-yl)-3-(3-(methoxymethyl)phenyl)-1-methyl-4-((4-methylphenyl)sulfonamido)-1H-pyrazole-5-carboxamide] | 0.1 to 1 µM | > 25 µM
CO[C@H]1CC[C@@H](c2nn(C)c(C(=O)N[C@@H](C)C(C)(C)C)c2NS(=O)(=O)c2ccc(C#N)cc2)CC1 [Compound 21, 4-((4-cyanophenyl)sulfonamido)-N—((S)-3,3-dimethylbutan-2-yl)-3-((1S,4R)-4-methoxycyclohexyl)-1-methyl-1H-pyrazole-5-carboxamide] | < 0.1 µM | < 0.1 µM
Cc1ccc(S(=O)(=O)Nc2c(C3=CCOCC3)nn(C)c2C(=O)N[C@@H](C)C(C)(C)C)cc1 [Compound 30, (S)-3-(3,6-dihydro-2H-pyran-4-yl)-N-(3,3-dimethylbutan-2-yl)-1-methyl-4-((4-methylphenyl)sulfonamido)-1H-pyrazole-5-carboxamide] |  | 1 to 25 µM
C[C@H](NC(=O)c1c(NS(=O)(=O)c2ccc(C#N)cc2)c(C2CCOCC2)nn1C)C(C)(C)C [Compound 25, (S)-4-((4-cyanophenyl)sulfonamido)-N-(3,3-dimethylbutan-2-yl)-1-methyl-3-(tetrahydro-2H-pyran-4-yl)-1H-pyrazole-5-carboxamide] | 0.1 to 1 µM | 0.1 to 1 µM
C[C@H](NC(=O)c1noc(C2CCOCC2)c1NS(=O)(=O)c1ccc(Cl)cc1)C(C)(C)C [Compound 11, (S)-4-((4-chlorophenyl)sulfonamido)-N-(3,3-dimethylbutan-2-yl)-5-(tetrahydro-2H-pyran-4-yl)isoxazole-3-carboxamide] |  | > 25 µM
Cc1ccc(S(=O)(=O)Nc2c(C3=CCC(C#N)CC3)nn(C)c2C(=O)N[C@@H](C)C(C)(C)C)cc1 (stereo partly drawn) [Compound 32, 3-(4-cyanocyclohex-1-en-1-yl)-N—((S)-3,3-dimethylbutan-2-yl)-1-methyl-4-((4-methylphenyl)sulfonamido)-1H-pyrazole-5-carboxamide] |  | 1 to 25 µM
C[C@H](NC(=O)c1c(NS(=O)(=O)c2ccc(Cl)cc2)c(C2=CCC(F)(F)CC2)nn1C)C(C)(C)C [Compound 36, (S)-4-((4-chlorophenyl)sulfonamido)-3-(4,4-difluorocyclohex-1-en-1-yl)-N-(3,3-dimethylbutan-2-yl)-1-methyl-1H-pyrazole-5-carboxamide] |  | > 25 µM
Cc1ccc(S(=O)(=O)Nc2c(C3=CCC(C)(C)CC3)nn(C)c2C(=O)N[C@@H](C)C(C)(C)C)cc1 [Compound 18, (S)—N-(3,3-dimethylbutan-2-yl)-3-(4,4-dimethylcyclohex-1-en-1-yl)-1-methyl-4-((4-methylphenyl)sulfonamido)-1H-pyrazole-5-carboxamide] |  | > 25 µM
CC[C@H](C)NC(=O)c1c(NS(=O)(=O)c2ccccc2)c(-c2ccc(F)cc2)nn1C [Compound 3, (S)—N-(sec-butyl)-3-(4-fluorophenyl)-1-methyl-4-(phenylsulfonamido)-1H-pyrazole-5-carboxamide] |  | > 25 µM
C[C@H](NC(=O)c1c(NS(=O)(=O)c2ccc(Cl)cc2)c(C2CCOCC2)nn1C1CC1)C(C)(C)C [Compound 10, (S)-4-((4-chlorophenyl)sulfonamido)-1-cyclopropyl-N-(3,3-dimethylbutan-2-yl)-3-(tetrahydro-2H-pyran-4-yl)-1H-pyrazole-5-carboxamide] |  | > 25 µM

— patent US20240018124A1, “MODULATORS OF FPR1 AND METHODS OF USING THE SAME” (BIOFRONT LTD, priority 2021, published 2024)
